Data from patent publication US20250361217A1, “FATTY ACID COMPOUNDS” (University of Pittsburgh - Of the Commonwealth System of …, priority 2022, published 2025).

How the values were obtained:
[1] = test system: mice with established NASH; settings: intraperitoneal administration; cited from earlier work
[2] = Cassette PK of branched vs straight-chain FA-AA (NAA) conjugates, oral or intraperitoneal; format: in vivo, mice; settings: 30 mg/kg; for levels in liver, rank among the groups / levels in plasma, rank among the groups: both intraperitoneal and oral administration
Experimental: A library of branched fatty acid-amino acid (FA-AA) conjugates was synthesized, exemplified in the table above. […] The absorption of the selected straight chain vs. branched FA-AA conjugates was compared in a cassette PK study as described below in more detail. A mixture of all the FA-AA conjugates (with or without branching) was concomitantly administered orally to mice (n=4-5, 30 mg/kg each compound). […] The absorption improvement resulting from the branching of the fatty acids was ubiquitous across all the FA-AA conjugates independent of the choice of amino acids. In contrast, all tested FA-AA conjugated dosed intraperitoneally (n=4-5, 30 mg/kg each compound) reached significant levels in circulation, bypassing the first-pass metabolism.
Two cassette PK experiments were performed to compare the pharmacokinetics of dimethyl acyl amino acids (acyl-2M-amino acids) with their natural, non-branched analogs and evaluate the increased half-life, oral bioavailability, and liver concentrations obtained by the invention (introduction of the dimethyl (2M) branching).
Groups of mice (n=4 per time point per group) were used. The compounds were delivered using a cassette pharmacokinetic design by oral gavage or by intraperitoneal injections at a dose of 30 mg/kg. Groups are detailed in table 1. To note, the methyl ester of C18:0-2M-Gly was abbreviated as C18:0-2M-Gly-Me.
The following groups were used, and the time points were 0, 1, 2, and 4 h for intraperitoneal administration and 0, 2, and 4 h for oral administration.

[3] = test system: C57BL6 mice fed with the NASH diet; assay: Oral treatment in established NASH mouse model; format: in vivo; settings: oral 10 mg/kg/day, 6 weeks
Experimental: This study defined the protective properties of branched FA-AA conjugates and the enhanced potency of 11U3-2M conjugated to Leucine (Leu) when administered orally in an established NASH mouse model. C57BL6 mice were fed with the NASH diet for 16 weeks and then orally administered with vehicle (n=10), C18:1-Leu (n=10), C18:1-2M-Leu (n=8) and 11U3-2M-Leu (n=12) (10 mg/kg/day) for 6 weeks while on the NASH diet. Mice were sacrificed and organs were collected for further analysis.

Row | Structure (SMILES) | levels in liver, rank among the groups [2] | levels in plasma, rank among the groups [2] | expression of genes regulating lipogenesis in liver [3] | fibrosis and cell death genes (e.g., collagens and TGF-b) in liver [3] | plasma alanine transaminase (ALT) [3] | plasma aspartate transaminase (AST) [3] | other results
1 | CCCCCCCC/C=C\CCCCCCCC(=O)N[C@@H](CC(C)C)C(=O)O [C18:1-Leu, N-oleoyl leucine] |  |  |  |  |  |  | steatosis, inflammation and fibrosis in mice with established NASH [1]: improved steatosis, and lowered inflammation and fibrosis
2 | CCCc1ccc(CCCCCCCCCC(C)(C)C(=O)NCC(=O)O)o1 [11U3-2M-Gly, (2,2-Dimethyl-11-(5-propylfuran-2-yl)undecanoyl)glycine] | highest levels | highest levels |  |  |  |  | 
3 | CCCCCCCCC=CCCCCCCC(C)(C)C(=O)N[C@@H](CC(C)C)C(=O)O [C18:1-2M-Leu, (2,2-dimethyloctadec-9-enoyl)leucine] |  |  | suppressed | anti-fibrotic actions | significantly decreased | significantly decreased | 
4 | CCCc1ccc(CCCCCCCCCC(C)(C)C(=O)NC(CC(C)C)C(=O)O)o1 (stereo not shown) [11U3-2M-Leu] | highest levels | highest levels | suppressed | anti-fibrotic actions | significantly decreased | significantly decreased | cholesterol levels [3]: significantly decreased; expression of key genes regulating fatty acid oxidation (PPARα signaling pathway) in liver [3]: significantly induced; inflammatory effect in the NASH animals (FIG. 23) [3]: anti-inflammatory; liver weight in comparison to vehicle control [3]: significant decrease; liver/body weight ratio in comparison to vehicle control [3]: significant decrease; plasma concentration over time (resistance to metabolism) vs 11U3-Leu ([2]; mice): maintained over a longer period; AUC0-4 vs all the straight-chain analogs ([2]; intraperitoneal): significantly higher; Cmax vs all the straight-chain analogs ([2]; intraperitoneal): significantly higher; metabolism vs all the straight-chain analogs ([2]; intraperitoneal): slower metabolism
